Source: article PMC12657942, “Measurement and modeling of rizatriptan in supercritical CO2 for pharmaceutical processing” (Scientific Reports, 2025)
Converted amounts (≈) assume the structure as drawn.

Assays:
[1] = Solubility of rizatriptan in supercritical CO2, static gravimetric method; type: physicochemical
Description: (§1) A specialized high-pressure system is employed to measure the solubility of rizatriptan using gravimetric techniques in a supercritical CO2[6]. A 200 mL vessel capable of withstanding pressures up to 35 MPa and temperatures up to 423 K is prepared with leak-free seals, valves, and fittings. All valves and connectors were 1/8 inch in size. The system’s pressure and temperature sensors are calibrated for accuracy. Next, 2000 mg of rizatriptan powder is weighed precisely using an analytical balance with 0.01 mg of sensitivity. The powder is then compacted into 5-mm diameter tablets to ensure uniformity and structural integrity. The tablets are placed in a basket inside the vessel to maximize their exposure to SC-CO2. CO2 is introduced gradually using a high-precision pump (SC-1000, SUPEREX), with the pressure increased in 0.05 MPa increments to maintain stability. The pressure is monitored and held within ± 0.01 MPa. Temperature is controlled within ± 0.1 K using a thermocouple, and the mixture is stirred at 250 rpm to ensure uniformity. […] The pressure and temperature indicators are checked to ensure stability. After equilibration, the vessel is carefully depressurized to ambient conditions to halt dissolution without losing the sample. The remaining tablets are then removed and cleaned of residual CO2. If needed, they are dried in a desiccator. The undissolved drug is weighed using a high-precision balance. The experiment is replicated at least three times to calculate the mean solubility and standard deviation. The following formula was used to calculate the mass of dissolved rizatriptan:1
Include the molecular weights of rizatriptan ([…]) and CO2 (44.01 g/mol) in the mole fraction calculations.2 3 4 5
The measurements were conducted at four isotherms (308.2 K, 318.2 K, 328.2 K, and 338.2 K) and […] pressure points (12, 15, 18, 21, 24, 27, 30 MPa). Table 3 documents the experimental conditions, including temperature, pressure, SC-CO2 density, mole fraction, standard deviation, and solubility in grams per liter.

[2] = Preliminary tests of equilibration time for solubility in SC-CO2 (Table S1); type: physicochemical; details: supercritical CO2, 65 °C, organic solvent or mixture, thermodynamic from solid, read-out: Solubility (preliminary test)
Description: as §1
Table S1. Preliminary tests.

[3] = set-up: method as in PMID 36559181, doi:10.1007/s40005-015-0206-z, PMID 20582194, PMID 10551439; details: conventional oral tablets; cited from earlier work

- crossover pressure ([1]; solubility isotherms 308.2–338.2 K in SC-CO2): approximately 15 MPa
- solubility at 240 min ([1]; supercritical CO2, 308.2 K to 338.2 K, 12 to 30 MPa, read-out: solubility (dissolution concentration) in SC-CO2, range over all conditions): 0.008 to 0.302 mg/mL (≈ 29.7 to 1120 µM)
- solubility at 240 min ([1]; supercritical CO2, T 308.0 K (text 308.2 K), P 12 MPa, ρCO2 768.52 kg/m^3, read-out: Solubility in supercritical carbon dioxide): 0.0616 mg/mL (≈ 229 µM)
- solubility at 240 min ([1]; supercritical CO2, T 308.0 K (text 308.2 K), P 15 MPa, ρCO2 816.10 kg/m^3, read-out: Solubility in supercritical carbon dioxide): 0.088 mg/mL (≈ 327 µM)
- solubility at 240 min ([1]; supercritical CO2, T 308.0 K (text 308.2 K), P 18 MPa, ρCO2 816.10 kg/m^3, read-out: Solubility in supercritical carbon dioxide): 0.107 mg/mL (≈ 396 µM)
- solubility at 240 min ([1]; supercritical CO2, T 308.0 K (text 308.2 K), P 21 MPa, ρCO2 874.55 kg/m^3, read-out: Solubility in supercritical carbon dioxide): 0.138 mg/mL (≈ 512 µM)
- solubility at 240 min ([1]; supercritical CO2, T 308.0 K (text 308.2 K), P 24 MPa, ρCO2 895.66 kg/m^3, read-out: Solubility in supercritical carbon dioxide): 0.181 mg/mL (≈ 672 µM)
- solubility at 240 min ([1]; supercritical CO2, T 308.0 K (text 308.2 K), P 27 MPa, ρCO2 913.70 kg/m^3, read-out: Solubility in supercritical carbon dioxide): 0.21 mg/mL (≈ 779 µM)
- solubility at 240 min ([1]; supercritical CO2, T 308.0 K (text 308.2 K), P 30 MPa, ρCO2 929.85 kg/m^3, read-out: Solubility in supercritical carbon dioxide): 0.237 mg/mL (≈ 878 µM)
- solubility at 240 min ([1]; supercritical CO2, T 318.0 K (text 318.2 K), P 12 MPa, ρCO2 659.80 kg/m^3, read-out: Solubility in supercritical carbon dioxide): 0.0406 mg/mL (≈ 151 µM)
- solubility at 240 min ([1]; supercritical CO2, T 318.0 K (text 318.2 K), P 15 MPa, ρCO2 743.83 kg/m^3, read-out: Solubility in supercritical carbon dioxide): 0.0835 mg/mL (≈ 310 µM)
- solubility at 240 min ([1]; supercritical CO2, T 318.0 K (text 318.2 K), P 18 MPa, ρCO2 790.29 kg/m^3, read-out: Solubility in supercritical carbon dioxide): 0.114 mg/mL (≈ 423 µM)
- solubility at 240 min ([1]; supercritical CO2, T 318.0 K (text 318.2 K), P 21 MPa, ρCO2 823.80 kg/m^3, read-out: Solubility in supercritical carbon dioxide): 0.158 mg/mL (≈ 585 µM)
- solubility at 240 min ([1]; supercritical CO2, T 318.0 K (text 318.2 K), P 24 MPa, ρCO2 850.15 kg/m^3, read-out: Solubility in supercritical carbon dioxide): 0.213 mg/mL (≈ 790 µM)
- solubility at 240 min ([1]; supercritical CO2, T 318.0 K (text 318.2 K), P 27 MPa, ρCO2 872.14 kg/m^3, read-out: Solubility in supercritical carbon dioxide): 0.25 mg/mL (≈ 928 µM)
- solubility at 240 min ([1]; supercritical CO2, T 318.0 K (text 318.2 K), P 30 MPa, ρCO2 890.90 kg/m^3, read-out: Solubility in supercritical carbon dioxide): 0.269 mg/mL (≈ 998 µM)
- solubility at 240 min ([1]; supercritical CO2, T 328.0 K (text 328.2 K), P 12 MPa, ρCO2 506.75 kg/m^3, read-out: Solubility in supercritical carbon dioxide): 0.0204 mg/mL (≈ 75.7 µM)
- solubility at 240 min ([1]; supercritical CO2, T 328.0 K (text 328.2 K), P 15 MPa, ρCO2 654.94 kg/m^3, read-out: Solubility in supercritical carbon dioxide): 0.0578 mg/mL (≈ 215 µM)
- solubility at 240 min ([1]; supercritical CO2, T 328.0 K (text 328.2 K), P 18 MPa, ρCO2 724.13 kg/m^3, read-out: Solubility in supercritical carbon dioxide): 0.114 mg/mL (≈ 421 µM)
- solubility at 240 min ([1]; supercritical CO2, T 328.0 K (text 328.2 K), P 21 MPa, ρCO2 768.74 kg/m^3, read-out: Solubility in supercritical carbon dioxide): 0.165 mg/mL (≈ 613 µM)
- solubility at 240 min ([1]; supercritical CO2, T 328.0 K (text 328.2 K), P 24 MPa, ρCO2 801.92 kg/m^3, read-out: Solubility in supercritical carbon dioxide): 0.216 mg/mL (≈ 800 µM)
- solubility at 240 min ([1]; supercritical CO2, T 328.0 K (text 328.2 K), P 27 MPa, ρCO2 828.51 kg/m^3, read-out: Solubility in supercritical carbon dioxide): 0.26 mg/mL (≈ 966 µM)
- solubility at 240 min ([1]; supercritical CO2, T 328.0 K (text 328.2 K), P 30 MPa, ρCO2 850.83 kg/m^3, read-out: Solubility in supercritical carbon dioxide): 0.288 mg/mL (≈ 1070 µM)
- solubility at 240 min ([1]; supercritical CO2, T 338.0 K (text 338.2 K), P 12 MPa, ρCO2 384.17 kg/m^3, read-out: Solubility in supercritical carbon dioxide): 0.0083 mg/mL (≈ 30.8 µM)
- solubility at 240 min ([1]; supercritical CO2, T 338.0 K (text 338.2 K), P 15 MPa, ρCO2 555.33 kg/m^3, read-out: Solubility in supercritical carbon dioxide): 0.0675 mg/mL (≈ 251 µM)
- solubility at 240 min ([1]; supercritical CO2, T 338.0 K (text 338.2 K), P 18 MPa, ρCO2 651.28 kg/m^3, read-out: Solubility in supercritical carbon dioxide): 0.124 mg/mL (≈ 459 µM)
- solubility at 240 min ([1]; supercritical CO2, T 338.0 K (text 338.2 K), P 21 MPa, ρCO2 709.59 kg/m^3, read-out: Solubility in supercritical carbon dioxide): 0.176 mg/mL (≈ 655 µM)
- solubility at 240 min ([1]; supercritical CO2, T 338.0 K (text 338.2 K), P 24 MPa, ρCO2 751.27 kg/m^3, read-out: Solubility in supercritical carbon dioxide): 0.223 mg/mL (≈ 829 µM)
- solubility at 240 min ([1]; supercritical CO2, T 338.0 K (text 338.2 K), P 27 MPa, ρCO2 783.19 kg/m^3, read-out: Solubility in supercritical carbon dioxide): 0.271 mg/mL (≈ 1000 µM)
- solubility at 240 min ([1]; supercritical CO2, T 338.0 K (text 338.2 K), P 30 MPa, ρCO2 809.68 kg/m^3, read-out: Solubility in supercritical carbon dioxide): 0.302 mg/mL (≈ 1120 µM)
- solubility at 60 min ([2]; T 338, P 30, Time 60): 0.0788 ± 0.0007 mg/mL (≈ 293 µM)
- solubility at 90 min ([2]; T 338, P 30, Time 90): 0.1676 ± 0.0008 mg/mL (≈ 622 µM)
- solubility at 120 min ([2]; T 338, P 30, Time 120): 0.2129 ± 0.0008 mg/mL (≈ 790 µM)
- solubility at 150 min ([2]; T 338, P 30, Time 150): 0.279 ± 0.0011 mg/mL (≈ 1040 µM)
- solubility at 180 min ([2]; T 338, P 30, Time 180): 0.2858 ± 0.0012 mg/mL (≈ 1060 µM)
- solubility at 210 min ([2]; T 338, P 30, Time 210): 0.3018 ± 0.0014 mg/mL (≈ 1120 µM)
- solubility at 240 min ([2]; T 338, P 30, Time 240): 0.3018 ± 0.0015 mg/mL (≈ 1120 µM)
Compound: CN(C)CCc1c[nH]c2ccc(Cn3cncn3)cc12 [Rizatriptan, Rizatriptan benzoate]
- bioavailability [3]: 40–45%
